Assay results taken from patent publication US20210379057A1, “NUTLIN-3A FOR USE IN TREATING A MYCOBACTERIUM TUBERCULOSIS INFECTION” (Massachusetts Institute of Technology, priority 2018, published 2021).

Legend:
[1] = system: Mycobacterium tuberculosis (Mtb) in primary human CD14+ monocyte-derived macrophages; assay type: cell-based
p53 = assay type: cell-based, human
Mtb infected macrophages = assay: Macrophage death in Mtb infected macrophages; conditions: Mtb infected macrophages treated with compound

Row | Structure (SMILES) | Mtb control (bacterial survival, ratio of live GFP+ to total mCherry+ pixels) [1] | GFP+/RFP+ pixel area [1] | expression of p53 (p53) | macrophage death (Mtb infected macrophages)
1 | Cc1ccc2nc(NCCN)c3ncc(C)n3c2c1 [BMS-345541] | worsened bacterial control | – | – | –
2 | O=C(Nc1cc(Cl)cc2c1[nH]c1cnccc12)c1cccnc1 [PS-1145] | worsened bacterial control | – | – | –
3 | NNC(=O)c1ccncc1 [isoniazid] | – | decrease in the GFP+/RFP+ pixel area | – | –
4 | COc1ccc(C2=N[C@@H](c3ccc(Cl)cc3)[C@@H](c3ccc(Cl)cc3)N2C(=O)N2CCNC(=O)C2)c(OC(C)C)c1 [nutlin-3a] | significantly increased Mtb control | – | enhanced expression of p53 | without increasing macrophage death
